PubChem BioAssay (NCI)
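These data come from cells grown in 96-well plates and exposed to compound for 48 hours at five concentrations. The concentration for 50% growth inhibition is given as GI50. Definition used: TGI = concentration required for complete inhibition of growth.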

Tests used:
Test in all cases: growth of human tumour cells (NCI), 48 h
786-0 renal = tested on: 786-0 renal
A498 renal = tested on: A498 renal
A549 NSCLC = tested on: A549 NSCLC
ACHN renal = tested on: ACHN renal
BT-549 breast = tested on: BT-549 breast
CAKI-1 renal = tested on: CAKI-1 renal
CCRF-CEM leukemia = tested on: CCRF-CEM leukemia
COLO 205 colon = tested on: COLO 205 colon
DU-145 prostate = tested on: DU-145 prostate
EKVX NSCLC = tested on: EKVX NSCLC
HCC-2998 colon = tested on: HCC-2998 colon
HCT-116 colon = tested on: HCT-116 colon
HCT-15 colon = tested on: HCT-15 colon
HL-60(TB) leukemia = tested on: HL-60(TB) leukemia
HOP-62 NSCLC = tested on: HOP-62 NSCLC
HOP-92 NSCLC = tested on: HOP-92 NSCLC
HS 578T breast = tested on: HS 578T breast
HT29 colon = tested on: HT29 colon
IGROV1 ovarian = tested on: IGROV1 ovarian
K-562 leukemia = tested on: K-562 leukemia
KM12 colon = tested on: KM12 colon
LOX IMVI melanoma = tested on: LOX IMVI melanoma
M14 melanoma = tested on: M14 melanoma
MALME-3M melanoma = tested on: MALME-3M melanoma
MCF7 breast = tested on: MCF7 breast
MDA-MB-231 breast = tested on: MDA-MB-231 breast
MDA-MB-435 = tested on: MDA-MB-435
MDA-MB-468 breast = tested on: MDA-MB-468 breast
MOLT-4 leukemia = tested on: MOLT-4 leukemia
NCI-H226 lung = tested on: NCI-H226 lung

`OCCCNc1oc(-c2ccccc2)nc1[P+](c1ccccc1)(c1ccccc1)c1ccccc1` showed a GI50 (786-0 renal) of 5.72 µM, a TGI (786-0 renal) of 20 µM and a GI50 (A498 renal) of 10.4 µM. The TGI (A498 renal) was 23 µM, the GI50 (A549 NSCLC) was 5.68 µM and the TGI (A549 NSCLC) was 20.3 µM. The GI50 (ACHN renal) was 10.2 µM, the TGI (ACHN renal) was 24.8 µM and the GI50 (BT-549 breast) was 1.87 µM. The TGI (BT-549 breast) was 6.03 µM, the GI50 (CAKI-1 renal) was 4.28 µM and the TGI (CAKI-1 renal) was 21.7 µM. The GI50 (CCRF-CEM leukemia) was 2.46 µM, the TGI (CCRF-CEM leukemia) was 13.5 µM and the GI50 (COLO 205 colon) was 1.26 µM. It also gave a TGI (COLO 205 colon) of 4.41 µM, a GI50 (DU-145 prostate) of 3.86 µM and a TGI (DU-145 prostate) of 16.4 µM. For the same compound, the GI50 (EKVX NSCLC) was 2.81 µM, the TGI (EKVX NSCLC) was 13.6 µM and the GI50 (HCC-2998 colon) was 2.95 µM. The TGI (HCC-2998 colon) was 12.8 µM, the GI50 (HCT-116 colon) was 2.52 µM and the TGI (HCT-116 colon) was 15.9 µM. The GI50 (HCT-15 colon) was 13.7 µM, the TGI (HCT-15 colon) was 28.1 µM and the GI50 (HL-60(TB) leukemia) was 0.586 µM. The TGI (HL-60(TB) leukemia) was 2.9 µM, the GI50 (HOP-62 NSCLC) was 3.25 µM and the TGI (HOP-62 NSCLC) was 14.5 µM. It also gave a GI50 (HOP-92 NSCLC) of 1.24 µM, a TGI (HOP-92 NSCLC) of 5.68 µM and a GI50 (HS 578T breast) of 2.25 µM. The TGI (HS 578T breast) was 8.21 µM, the GI50 (HT29 colon) was 2.45 µM and the TGI (HT29 colon) was 13.3 µM. For the same compound, the GI50 (IGROV1 ovarian) was 2.14 µM, the TGI (IGROV1 ovarian) was 7.01 µM and the GI50 (K-562 leukemia) was 1.46 µM. For the same compound, the TGI (K-562 leukemia) was 11.7 µM, the GI50 (KM12 colon) was 2.13 µM and the TGI (KM12 colon) was 7.15 µM. The GI50 (LOX IMVI melanoma) was 3.12 µM, the TGI (LOX IMVI melanoma) was 12.2 µM and the GI50 (M14 melanoma) was 3.13 µM. It also gave a TGI (M14 melanoma) of 17.7 µM, a GI50 (MALME-3M melanoma) of 1.57 µM and a TGI (MALME-3M melanoma) of 5.38 µM. The GI50 (MCF7 breast) was 1.95 µM, the TGI (MCF7 breast) was 8.73 µM and the GI50 (MDA-MB-231 breast) was 1.72 µM. It also gave a TGI (MDA-MB-231 breast) of 4.84 µM, a GI50 (MDA-MB-435) of 2.26 µM and a TGI (MDA-MB-435) of 10 µM. For the same compound, the GI50 (MDA-MB-468 breast) was 0.337 µM, the TGI (MDA-MB-468 breast) was 1.97 µM and the GI50 (MOLT-4 leukemia) was 3.01 µM. The TGI (MOLT-4 leukemia) was 12.1 µM and the GI50 (NCI-H226 lung) was 2.44 µM.
